This note sets out measurements from ChEMBL document CHEMBL1201862, “PubChem BioAssay data set” (2004).

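Assay format: 96-well plates, 48-hour exposure. The concentration for 50% growth inhibition is given as GI50.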 The source made the active and inactive calls. No stated cut-off is given here; in the data, active = GI50 up to about 1.1 µM and inactive = higher.

Some test systems named below: M14; SK-OV-3; OVCAR-5; HOP-62; Malme-3M; HOP-92; SF-268; UACC-257; 786-0; MDA-MB-231; SK-MEL-28; CCRF-CEM; U-251; MDA-MB-435; SK-MEL-5; HL-60; NCI-H460; RPMI-8226; HCC 2998; OVCAR-3.
What all share (assay): growth of human tumour cells (NCI), 48 h

With `CCCn1c2c(c3ccccc3c1=O)C(=O)c1ccccc1-2`, the GI50 in the assay with M14 is 68.1 µM (inactive); in the assay with SK-OV-3, > 100 µM (inactive); with OVCAR-5, > 100 µM (inactive); with HOP-62 it was 14.1 µM (inactive); in the assay with Malme-3M it was 76.7 µM (inactive); in the assay with HOP-92, > 57.4 µM (inactive). Also, the GI50 was > 73.1 µM (inactive) with SF-268; > 100 µM (inactive) with UACC-257; 16.4 µM (inactive) with 786-0; > 40.4 µM (inactive) in the assay on MDA-MB-231; > 68.9 µM (inactive) in the assay on SK-MEL-28; > 56.2 µM (inactive) in the assay with CCRF-CEM. Further, the GI50 in the assay on U-251 is > 61.8 µM (inactive); in the assay with MDA-MB-435, > 100 µM (inactive); in the assay on SK-MEL-5, 11.2 µM (inactive); in the assay on HL-60, 1.78 µM (inactive); in the assay with NCI-H460 it was 7.23 µM (inactive); with RPMI-8226, > 28.8 µM (inactive). The GI50 in the assay with HCC 2998 and in the assay on OVCAR-3 was > 100 µM (inactive) throughout.
Turning to `C[C@]12CC[C@@H]3c4ccc(O)cc4CC[C@H]3[C@@H]1C/C(=C\c1ccncc1)[C@@H]2O`, the GI50 was 20.6 µM (inactive) in the assay on M14; 26.2 µM (inactive) in the assay with SK-OV-3; 28.6 µM (inactive) with OVCAR-5; 14.8 µM (inactive) in the assay with HOP-62; 5.04 µM (inactive) in the assay on Malme-3M; 5.32 µM (inactive) in the assay with HOP-92. Moreover, the GI50 is 8.55 µM (inactive) in the assay with SF-268; 14.5 µM (inactive) with UACC-257; 14.3 µM (inactive) with 786-0; 10.1 µM (inactive) in the assay on MDA-MB-231; 22.3 µM (inactive) with SK-MEL-28; 9.75 µM (inactive) in the assay with CCRF-CEM. Further, the GI50 in the assay with U-251 is 11.8 µM (inactive); in the assay on MDA-MB-435 it was 2.92 µM (inactive); in the assay on SK-MEL-5 it was 4.18 µM (inactive); in the assay with HL-60, 8.51 µM (inactive); with NCI-H460 it was 6.32 µM (inactive); in the assay on RPMI-8226, 3.13 µM (inactive). In addition, the values for the GI50 in the assay on HCC 2998 and in the assay on OVCAR-3 were 7.96 µM (inactive) and 11.5 µM (inactive), respectively.
Turning to `N#Cc1c(Cl)c2cc([N+](=O)[O-])ccc2n2c1nc1ccccc12`, the GI50 with M14 is 1.99 µM (inactive); in the assay on SK-OV-3, 23.3 µM (inactive); with OVCAR-5 it was 4.05 µM (inactive); in the assay with HOP-62 it was 18.2 µM (inactive); with Malme-3M, 6.85 µM (inactive); with HOP-92, 2.77 µM (inactive). Besides, the GI50 was 5.71 µM (inactive) in the assay with SF-268; 20.6 µM (inactive) with UACC-257; 2.01 µM (inactive) in the assay with 786-0; 0.492 µM (active) in the assay on MDA-MB-231; 6.87 µM (inactive) in the assay with SK-MEL-28; 0.57 µM (active) in the assay with CCRF-CEM. The GI50 was 7.57 µM (inactive) with U-251; 2.35 µM (inactive) in the assay with MDA-MB-435; 22.6 µM (inactive) in the assay with SK-MEL-5; 0.172 µM (active) in the assay with HL-60; 14.6 µM (inactive) in the assay with NCI-H460; 3.94 µM (inactive) in the assay with RPMI-8226. The GI50 is 7.53 µM (inactive) with HCC 2998 and 6.76 µM (inactive) in the assay on OVCAR-3.
For `CNC(=O)CN(C)C(=O)CCC(=O)N(C)C`, the GI50 in the assay on M14, in the assay with SK-OV-3, in the assay with OVCAR-5, in the assay on HOP-62, with Malme-3M and in the assay with HOP-92 was > 100 µM (inactive) each time. The GI50 in the assay with SF-268, in the assay with UACC-257, in the assay with 786-0, with MDA-MB-231, in the assay on SK-MEL-28 and with CCRF-CEM was > 100 µM (inactive) each time. Moreover, the GI50 in the assay with U-251, in the assay on MDA-MB-435, in the assay on SK-MEL-5, in the assay with HL-60, with NCI-H460 and in the assay with RPMI-8226 was > 100 µM (inactive) in each case. Moreover, the GI50 with HCC 2998 and in the assay on OVCAR-3 was > 100 µM (inactive) throughout.
With `CCSc1cc(=O)n(C)c(=O)n1C`, the GI50 in the assay on M14, in the assay with SK-OV-3, in the assay on OVCAR-5, in the assay with HOP-62, in the assay on Malme-3M and in the assay on HOP-92 was > 100 µM (inactive) each time. Besides, the GI50 in the assay on SF-268, in the assay with UACC-257, with 786-0, in the assay on MDA-MB-231, with SK-MEL-28 and in the assay on CCRF-CEM was > 100 µM (inactive) each time. Moreover, the GI50 in the assay with U-251, in the assay on MDA-MB-435, in the assay on SK-MEL-5, in the assay on HL-60, with NCI-H460 and in the assay with RPMI-8226 was > 100 µM (inactive) each time. The GI50 in the assay on HCC 2998 and with OVCAR-3 was > 100 µM (inactive) in each case.
For `OC(c1cc(-c2ccccc2)nc2c1ccc1ccccc12)C1CCCCN1` (stereo not given), the GI50 with M14 was 1.73 µM (inactive); with SK-OV-3, 1.88 µM (inactive); in the assay on OVCAR-5, 1.6 µM (inactive); with HOP-62 it was 1.67 µM (inactive); in the assay on Malme-3M, 1.38 µM (inactive); in the assay on HOP-92, 1.62 µM (inactive). For the same compound, the GI50 in the assay on SF-268 was 1.43 µM (inactive); with UACC-257, 1.82 µM (inactive); in the assay on 786-0, 1.64 µM (inactive); with MDA-MB-231, 1.79 µM (inactive); with SK-MEL-28, 1.81 µM (inactive); in the assay on CCRF-CEM, 0.0473 µM (active). Moreover, the GI50 with U-251 is 1.76 µM (inactive); in the assay with MDA-MB-435, 1.83 µM (inactive); with SK-MEL-5 it was 2.8 µM (inactive); in the assay on HL-60 it was 0.855 µM (active); in the assay on NCI-H460, 1.79 µM (inactive); with RPMI-8226, 1.12 µM (active). Moreover, the results for the GI50 with HCC 2998 and in the assay on OVCAR-3 were 0.59 µM (active) and 1.84 µM (inactive), respectively.
Take `CCOC(=O)OC1(c2ccccc2)CCN(C)CC1`: the GI50 with M14, with SK-OV-3, in the assay on OVCAR-5, with HOP-62, in the assay with Malme-3M and with HOP-92 was > 100 µM (inactive) throughout. The GI50 in the assay on SF-268, in the assay on UACC-257, in the assay with 786-0, with MDA-MB-231, in the assay with SK-MEL-28 and in the assay with CCRF-CEM was > 100 µM (inactive) throughout. For the same compound, the GI50 with U-251, with MDA-MB-435, in the assay with SK-MEL-5, in the assay with HL-60, in the assay on NCI-H460 and in the assay with RPMI-8226 was > 100 µM (inactive) each time. For the same compound, the GI50 in the assay on HCC 2998 and with OVCAR-3 was > 100 µM (inactive) each time.
In the case of `CC(=O)CCCCn1c(=O)c2c(nc(Br)n2C)n(C)c1=O`, the GI50 with M14 is > 100 µM (inactive); with SK-OV-3, > 100 µM (inactive); in the assay with OVCAR-5 it was > 100 µM (inactive); with HOP-62 it was > 100 µM (inactive); in the assay on Malme-3M it was > 100 µM (inactive); in the assay on HOP-92 it was 11.7 µM (inactive). The GI50 in the assay with SF-268, in the assay on UACC-257, in the assay on 786-0, in the assay with MDA-MB-231, in the assay on SK-MEL-28 and in the assay on CCRF-CEM was > 100 µM (inactive) throughout. Further, the GI50 in the assay with U-251, in the assay with MDA-MB-435, with SK-MEL-5, with HL-60, in the assay with NCI-H460 and in the assay with RPMI-8226 was > 100 µM (inactive) in each case. Also, the results for the GI50 in the assay with HCC 2998 and in the assay on OVCAR-3 were 95.3 µM (inactive) and > 100 µM (inactive), respectively.
`CCN(CC)CCOc1ccc(N2C(=O)c3cc(OC)c(OC)cc3C2=O)cc1`: the GI50 in the assay on M14, in the assay with SK-OV-3, in the assay with OVCAR-5, in the assay with HOP-62, in the assay with Malme-3M and in the assay with HOP-92 was > 100 µM (inactive) throughout. The GI50 in the assay with SF-268, in the assay on UACC-257, with 786-0, with MDA-MB-231, in the assay on SK-MEL-28 and with CCRF-CEM was > 100 µM (inactive) throughout. The GI50 in the assay on U-251, with MDA-MB-435, in the assay with SK-MEL-5, in the assay with HL-60, with NCI-H460 and in the assay on RPMI-8226 was > 100 µM (inactive) in each case. The GI50 in the assay on HCC 2998 and in the assay with OVCAR-3 was > 100 µM (inactive) throughout.
With `Nc1nc(Sc2ccc([N+](=O)[O-])c3nonc23)c2nc[nH]c2n1`, the GI50 with M14 was 0.363 µM (active); in the assay with SK-OV-3, 0.425 µM (active); in the assay with OVCAR-5 it was 1.02 µM (active); in the assay on HOP-62, 0.561 µM (active); with Malme-3M, 1.02 µM (active); in the assay on HOP-92, 2.56 µM (inactive). In addition, the GI50 in the assay with SF-268 was 0.681 µM (active); in the assay on UACC-257, 2.13 µM (inactive); in the assay on 786-0, 0.489 µM (active); in the assay on MDA-MB-231, 0.731 µM (active); with SK-MEL-28, 10.5 µM (inactive); in the assay with CCRF-CEM it was 0.191 µM (active). Further, the GI50 was 5.86 µM (inactive) with U-251; 0.59 µM (active) with MDA-MB-435; 2.15 µM (inactive) in the assay on SK-MEL-5; 1.71 µM (inactive) with HL-60; 0.627 µM (active) with NCI-H460; 0.31 µM (active) in the assay on RPMI-8226. For the same compound, the results for the GI50 in the assay with HCC 2998 and in the assay with OVCAR-3 were 1.08 µM (active) and 0.624 µM (active), respectively.
